Each structure is given as a SMILES string. ≈ marks a conversion by molar mass, not a printed value. Calls of active or inactive are those of the source. No cut-off for these calls is given here.

The subject of assay [1] is Micrococcus luteus. Put plainly: Antibacterial activity against Micrococcus luteus. The assay is classed as functional.
Assay [2] concerns Rhizomucor miehei. Briefly: Antifungal activity against Mucor miehei. The assay is classed as functional.
Assay [3] has as its system Enterobacter cloacae subsp. dissolvens. Briefly: Antibacterial activity against Enterobacter dissolvens. The format is functional.
The test system of assay [4] is Lepidium sativum. Briefly: Phytotoxicity against Lepidium sativum assessed per disk. The format is functional, organism-based.
Assay [5] concerns L1210. Briefly: Cytotoxicity against mouse L1210 cells after 48 hrs. To be noted: L1210, 48 h. The assay is classed as functional, cell-based.
For assay [6], the system named is Penicillium chrysogenum. Briefly: Antifungal activity against Penicillium notatum. The assay is classed as functional.
Assay [7] relates to Paecilomyces variotii. Put plainly: Antifungal activity against Paecilomyces variotii. The assay is classed as functional.

Broadly, the MIC is the least concentration at which growth counts as inhibited. Higher therefore signals weaker potency. With `COc1cc2c(c(O)c1C)C(=O)CCC2O` (stereo unspecified), the MIC in assay [1], in assay [2], in assay [3], in assay [6] and in assay [7] was 100 µg/mL (≈ 450 µM) each time. Moreover, the IC50 in assay [4] came to 100 µg; in assay [5], 25 µg/mL (≈ 112 µM).
Regarding `COC(=O)c1c(OC)c(C)c(OCC=C(C)C)c2c1C(=O)OC2`, the outcome in assay [1], in assay [2], in assay [3], in assay [4], in assay [6] and in assay [7] was inactive. In assay [5], the IC50 worked out at 25 µg/mL (≈ 78 µM).
On to `COc1c(C)c(OCC=C(C)C)c2c(c1C(=O)O)C(=O)OC2`, for which the result in assay [1], in assay [2], in assay [3], in assay [4], in assay [6] and in assay [7] was inactive. The IC50 in assay [5] was determined as 50 µg/mL (≈ 163 µM).

Values taken from ChEMBL document CHEMBL1146441, “Naphthalenone and Phthalide Metabolites from Lachnum papyraceum 1” (J Nat Prod, 1997).
